The results in this text go back to patent US8959984B2, “Proteome-wide quantification of small molecule binding to cellular target proteins” (priority 2007, dated 2015).

Each structure is given as a SMILES string. Where two headings read alike, the source gives them in different places.

As a reminder, the Kd is the free concentration of one partner at which half of the binding sites on the other are occupied at equilibrium, for simple one-to-one binding.

Targets include SPR (Homo sapiens, UniProt P35270); RPL7 (Homo sapiens, UniProt P18124); CaMK2d (CAMK2D) (Homo sapiens, UniProt Q13557); SNRPG (Homo sapiens, UniProt P62308).
In another assay the target is T1, MAP3K5 (Homo sapiens, UniProt Q99683).
T1 construct: endogenous in cells; host or cells: HeLa S3
T1 sequence (Q99683 1-1374): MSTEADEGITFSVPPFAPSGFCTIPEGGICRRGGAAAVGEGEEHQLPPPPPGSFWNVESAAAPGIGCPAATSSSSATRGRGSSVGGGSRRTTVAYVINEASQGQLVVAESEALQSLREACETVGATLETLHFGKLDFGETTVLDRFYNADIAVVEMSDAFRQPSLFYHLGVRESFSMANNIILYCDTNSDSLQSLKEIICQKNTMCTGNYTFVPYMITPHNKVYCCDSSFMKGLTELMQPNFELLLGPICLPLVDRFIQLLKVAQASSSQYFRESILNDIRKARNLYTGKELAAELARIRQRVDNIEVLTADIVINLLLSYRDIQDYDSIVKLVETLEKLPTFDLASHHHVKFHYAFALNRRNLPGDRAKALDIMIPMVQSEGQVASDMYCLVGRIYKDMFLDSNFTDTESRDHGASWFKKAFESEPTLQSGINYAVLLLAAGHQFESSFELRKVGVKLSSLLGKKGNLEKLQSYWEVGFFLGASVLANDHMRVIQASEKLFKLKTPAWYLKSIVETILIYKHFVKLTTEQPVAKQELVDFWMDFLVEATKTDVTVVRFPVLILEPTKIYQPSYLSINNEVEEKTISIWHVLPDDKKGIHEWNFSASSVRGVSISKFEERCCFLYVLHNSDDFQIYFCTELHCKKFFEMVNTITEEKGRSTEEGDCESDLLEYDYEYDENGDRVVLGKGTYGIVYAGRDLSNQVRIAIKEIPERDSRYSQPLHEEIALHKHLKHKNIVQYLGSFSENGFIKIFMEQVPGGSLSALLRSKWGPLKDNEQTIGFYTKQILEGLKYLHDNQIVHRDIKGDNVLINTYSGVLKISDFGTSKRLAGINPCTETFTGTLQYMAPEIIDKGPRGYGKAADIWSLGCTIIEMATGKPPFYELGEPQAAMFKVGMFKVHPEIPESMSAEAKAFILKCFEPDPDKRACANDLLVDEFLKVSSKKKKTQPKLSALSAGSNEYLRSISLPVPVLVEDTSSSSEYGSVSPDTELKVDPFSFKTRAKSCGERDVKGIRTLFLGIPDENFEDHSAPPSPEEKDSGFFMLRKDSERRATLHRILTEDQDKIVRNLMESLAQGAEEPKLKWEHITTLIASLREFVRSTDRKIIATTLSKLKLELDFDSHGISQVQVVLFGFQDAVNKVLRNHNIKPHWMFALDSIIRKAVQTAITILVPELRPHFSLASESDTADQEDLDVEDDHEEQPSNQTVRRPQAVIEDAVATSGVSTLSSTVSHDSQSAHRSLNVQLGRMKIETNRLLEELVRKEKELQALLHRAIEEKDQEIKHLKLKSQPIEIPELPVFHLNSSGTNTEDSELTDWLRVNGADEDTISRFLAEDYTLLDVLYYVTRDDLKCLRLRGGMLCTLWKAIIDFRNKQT
Kind of assay: binding to immobilized V16742 (IVA1/IVA2, HeLa lysate, MS).

In assay [1] the target is T2, Isoform 1 of Nicotinamide phosphoribosyltransferase (Homo sapiens, UniProt P43490).
T2 construct: endogenous in cells; host or cells: HeLa S3
T2 sequence (P43490 whole entry, canonical isoform): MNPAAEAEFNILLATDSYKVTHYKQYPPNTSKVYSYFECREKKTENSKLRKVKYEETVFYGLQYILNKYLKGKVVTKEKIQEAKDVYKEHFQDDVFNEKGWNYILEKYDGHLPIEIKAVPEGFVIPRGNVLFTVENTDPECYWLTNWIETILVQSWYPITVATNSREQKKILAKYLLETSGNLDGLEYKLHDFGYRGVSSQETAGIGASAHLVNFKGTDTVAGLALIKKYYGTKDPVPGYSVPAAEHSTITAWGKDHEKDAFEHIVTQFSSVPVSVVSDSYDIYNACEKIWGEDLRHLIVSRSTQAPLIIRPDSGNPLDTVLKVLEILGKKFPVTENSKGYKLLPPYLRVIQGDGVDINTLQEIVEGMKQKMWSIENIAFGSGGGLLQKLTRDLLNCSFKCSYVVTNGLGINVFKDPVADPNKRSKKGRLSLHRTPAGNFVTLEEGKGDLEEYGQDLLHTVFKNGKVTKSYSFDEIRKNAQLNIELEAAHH
The description is as above.

The next assay concerns the target T3, BUB1 (Homo sapiens, UniProt O43683).
T3 construct: endogenous in cells; host or cells: HeLa S3
Described as above.

Another assay addresses EphB4 (Homo sapiens, UniProt P54760). The description is as above.
Setting [2] is: average of two experiments, read-out: Kd Avg.

SNRPG, sequence (P62306 whole entry): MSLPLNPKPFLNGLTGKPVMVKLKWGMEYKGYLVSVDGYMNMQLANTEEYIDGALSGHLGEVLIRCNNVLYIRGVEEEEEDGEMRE
SNRPG, sequence (P62304 whole entry, further chain): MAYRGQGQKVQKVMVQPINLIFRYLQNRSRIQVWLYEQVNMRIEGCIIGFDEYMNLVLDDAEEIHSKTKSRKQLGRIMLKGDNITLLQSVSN
SNRPG, sequence (P62308 whole entry): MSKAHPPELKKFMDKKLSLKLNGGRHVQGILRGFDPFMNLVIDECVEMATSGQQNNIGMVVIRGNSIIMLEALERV
T3 sequence (O43683 whole entry): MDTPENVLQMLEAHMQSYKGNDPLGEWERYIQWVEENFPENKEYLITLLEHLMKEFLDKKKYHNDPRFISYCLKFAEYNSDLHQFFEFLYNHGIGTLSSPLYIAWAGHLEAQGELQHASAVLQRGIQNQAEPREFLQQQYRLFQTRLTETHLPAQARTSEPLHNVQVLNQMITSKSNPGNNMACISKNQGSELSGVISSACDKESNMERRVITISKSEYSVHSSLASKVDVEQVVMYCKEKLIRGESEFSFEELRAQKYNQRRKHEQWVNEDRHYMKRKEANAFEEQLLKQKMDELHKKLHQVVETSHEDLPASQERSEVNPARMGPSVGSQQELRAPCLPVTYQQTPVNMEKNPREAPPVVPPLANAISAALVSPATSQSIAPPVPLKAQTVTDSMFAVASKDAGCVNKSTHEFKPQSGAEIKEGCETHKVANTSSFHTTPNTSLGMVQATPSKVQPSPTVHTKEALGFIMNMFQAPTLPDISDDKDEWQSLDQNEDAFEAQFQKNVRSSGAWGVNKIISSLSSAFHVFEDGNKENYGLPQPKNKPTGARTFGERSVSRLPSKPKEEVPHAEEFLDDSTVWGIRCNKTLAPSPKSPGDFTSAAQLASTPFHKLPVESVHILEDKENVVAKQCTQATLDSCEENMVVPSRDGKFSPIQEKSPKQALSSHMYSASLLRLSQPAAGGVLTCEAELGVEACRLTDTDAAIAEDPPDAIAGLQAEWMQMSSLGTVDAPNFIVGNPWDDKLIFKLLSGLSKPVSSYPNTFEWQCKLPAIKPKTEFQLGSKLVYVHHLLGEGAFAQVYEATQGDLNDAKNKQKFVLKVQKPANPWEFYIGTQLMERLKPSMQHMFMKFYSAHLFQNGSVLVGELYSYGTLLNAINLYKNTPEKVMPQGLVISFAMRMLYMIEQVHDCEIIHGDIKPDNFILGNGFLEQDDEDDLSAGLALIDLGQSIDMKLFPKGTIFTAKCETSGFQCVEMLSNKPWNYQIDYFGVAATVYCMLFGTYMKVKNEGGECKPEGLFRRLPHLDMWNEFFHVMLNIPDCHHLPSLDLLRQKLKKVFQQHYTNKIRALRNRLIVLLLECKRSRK
SPR, sequence (P35270 whole entry): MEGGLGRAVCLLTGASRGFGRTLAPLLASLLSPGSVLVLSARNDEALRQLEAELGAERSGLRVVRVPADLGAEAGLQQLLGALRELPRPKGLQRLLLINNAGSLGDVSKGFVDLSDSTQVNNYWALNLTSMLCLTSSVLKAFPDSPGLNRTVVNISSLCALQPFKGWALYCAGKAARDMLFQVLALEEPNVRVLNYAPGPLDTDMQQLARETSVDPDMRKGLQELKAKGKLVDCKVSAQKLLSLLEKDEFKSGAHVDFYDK
CaMK2d (CAMK2D), sequence (Q13557 whole entry): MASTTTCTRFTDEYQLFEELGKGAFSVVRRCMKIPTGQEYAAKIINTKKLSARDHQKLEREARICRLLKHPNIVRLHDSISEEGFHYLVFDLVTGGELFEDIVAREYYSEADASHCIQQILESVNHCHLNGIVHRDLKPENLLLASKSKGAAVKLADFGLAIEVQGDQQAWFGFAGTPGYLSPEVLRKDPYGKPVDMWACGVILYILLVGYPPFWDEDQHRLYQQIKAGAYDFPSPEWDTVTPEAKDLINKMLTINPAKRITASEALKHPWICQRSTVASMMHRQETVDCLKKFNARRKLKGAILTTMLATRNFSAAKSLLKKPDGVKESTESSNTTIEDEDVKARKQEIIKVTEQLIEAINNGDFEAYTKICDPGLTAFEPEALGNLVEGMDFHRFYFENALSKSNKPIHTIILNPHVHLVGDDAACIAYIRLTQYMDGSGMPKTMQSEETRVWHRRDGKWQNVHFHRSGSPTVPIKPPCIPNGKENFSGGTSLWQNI
EphB4, sequence (P54760 16-987): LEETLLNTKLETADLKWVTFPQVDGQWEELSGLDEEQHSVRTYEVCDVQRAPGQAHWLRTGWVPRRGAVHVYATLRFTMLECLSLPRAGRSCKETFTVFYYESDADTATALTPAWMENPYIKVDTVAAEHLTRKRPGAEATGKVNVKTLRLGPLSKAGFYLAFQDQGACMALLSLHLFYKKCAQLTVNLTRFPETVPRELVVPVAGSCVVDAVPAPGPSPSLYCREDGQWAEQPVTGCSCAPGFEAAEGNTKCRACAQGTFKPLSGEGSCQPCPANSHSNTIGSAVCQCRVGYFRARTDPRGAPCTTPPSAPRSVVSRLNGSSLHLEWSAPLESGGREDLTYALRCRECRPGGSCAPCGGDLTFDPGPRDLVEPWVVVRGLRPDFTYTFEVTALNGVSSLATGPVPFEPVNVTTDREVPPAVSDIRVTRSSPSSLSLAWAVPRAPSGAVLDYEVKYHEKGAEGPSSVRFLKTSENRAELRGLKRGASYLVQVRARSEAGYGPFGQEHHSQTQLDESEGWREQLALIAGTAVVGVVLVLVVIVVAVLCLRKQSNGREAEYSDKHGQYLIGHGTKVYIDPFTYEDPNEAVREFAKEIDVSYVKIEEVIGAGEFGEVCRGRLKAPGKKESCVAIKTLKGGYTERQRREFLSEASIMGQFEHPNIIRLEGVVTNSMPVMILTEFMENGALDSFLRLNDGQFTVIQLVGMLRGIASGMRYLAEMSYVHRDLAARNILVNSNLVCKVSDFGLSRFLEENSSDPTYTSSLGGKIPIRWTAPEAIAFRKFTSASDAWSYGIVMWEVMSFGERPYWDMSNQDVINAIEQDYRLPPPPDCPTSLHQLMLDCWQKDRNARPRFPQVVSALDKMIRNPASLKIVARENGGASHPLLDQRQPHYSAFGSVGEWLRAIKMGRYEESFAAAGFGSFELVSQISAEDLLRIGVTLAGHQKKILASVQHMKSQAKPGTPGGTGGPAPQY

Regarding `CC(C)n1c(=O)ccc2cnc(Nc3ccc(OCCN)cc3)nc21` [V16742], the “Percent bound at various 16742 conc” value amounted to 7.42% at MAP3K5 (Experiment 1, 1.87 μM 16742); 10.05% at MAP3K5 (Experiment 1, 8.74 μM 16742); 56.90% at MAP3K5 (Experiment 1, 52 μM 16742); 1.27% at MAP3K5 (Experiment 2, 1.87 μM 16742); 1.00% at MAP3K5 (Experiment 2, 8.74 μM 16742); 17.64% at MAP3K5 (Experiment 2, 52 μM 16742). Moreover, the “Percent bound at various 16742 conc” value in assay [1] (Experiment 1, 1.87 μM 16742) stood at 2.80%; in assay [1] (Experiment 1, 8.74 μM 16742), 2.70%; in assay [1] (Experiment 1, 52 μM 16742) it was 54.03%; in assay [1] (Experiment 2, 1.87 μM 16742) it was 2.28%; in assay [1] (Experiment 2, 8.74 μM 16742) it was 3.40%; in assay [1] (Experiment 2, 52 μM 16742), 41.68%. Moreover, the “Percent bound at various 16742 conc” value on BUB1 (Experiment 1, 1.87 μM 16742) is reported as 2.46%; at BUB1 (Experiment 1, 8.74 μM 16742) it was 11.95%; at BUB1 (Experiment 1, 52 μM 16742), 50.46%; on BUB1 (Experiment 2, 52 μM 16742) it was 47.87%. The Kd on MAP3K5 (Experiment 1, read-out: Kd) was determined as 44.5 µM; at MAP3K5 (Experiment 2, read-out: Kd), 252 µM; on MAP3K5 (setting [2]), 148 µM; in assay [1] (Experiment 1, read-out: Kd), 54.8 µM; in assay [1] (Experiment 2, read-out: Kd) it was 80.3 µM; in assay [1] (setting [2]), 67.5 µM. On BUB1 (single Kd value, obtained from only one experiment), this compound displayed a Kd of 53.4 µM.

For `CC(C)n1c(=O)ccc2cnc(Nc3ccc(OCCN)cc3)nc21` [compound 16742], the “Percent bound at 1.87 μM 16742 conc” value was determined as 3.95% at EphB4 (EXPERIMENT 1) and 2.71% at EphB4 (EXPERIMENT 2). The “Percent bound at 8.74 μM 16742 conc” value at EphB4 (EXPERIMENT 1) came out at 18.14%; at EphB4 (EXPERIMENT 2), 12.85%. Moreover, the entries for the “Percent bound at 52 μM 16742 conc” value on EphB4 (EXPERIMENT 1) and at EphB4 (EXPERIMENT 2) were 61.05% and 50.80%, respectively. The Kd at EphB4 (EXPERIMENT 1, read-out: Kd) worked out at 35.2 µM; at EphB4 (EXPERIMENT 2, read-out: Kd) it was 52.1 µM; at EphB4 (read-out: Kd Avg), 43.6 µM.

On to `COc1cc2ncnc(Nc3ccc(F)c(Cl)c3)c2cc1OCCCN1CCOCC1` [gefitinib], for which the “rAVERAGE (10 nM/0 nM Gef.)” value on SPR is given as 1.04; on RPL7 it was 0.84; at CaMK2d (CAMK2D) it was 0.89; at SNRPG, 0.65. Further, the “rAVERAGE (100 nM/0 nM Gef.)” value on SPR is 1.10; at RPL7, 1.08; on CaMK2d (CAMK2D), 1.11; at SNRPG, 1.09. Moreover, the “rAVERAGE (1000 nM/0 nM Gef.)” value at SPR was 1.01; at RPL7 it was 0.86; on CaMK2d (CAMK2D), 0.91; at SNRPG, 0.72. Also, the “rAVERAGE (10000 nM/0 nM Gef.)” value was 0.77 at SPR, 0.98 on RPL7, 0.93 at CaMK2d (CAMK2D) and 0.89 at SNRPG.
